Assay results as given in patent US9796733B2, “Imidazo-pyrazine derivatives useful as soluble guanylate cyclase activators” (Merck Sharp & Dohme Corp., priority 2014, dated 2017).

Columns and labels:
[1] = biological target: T1, sGC α1/β1 heterodimer (Homo sapiens, UniProt Q02108+Q02153); experiment: Cell-based sGC functional assay (CASA assay): cGMP generation in CHO-K1/sGC cells, HTRF detection; settings: for Emax: CHO-K1, percent activation relative to standard Compound A in CHO-K1/sGC cells, read-out: % Act.; for EC50: inflection point (IP) of cGMP generation in CHO-K1/sGC cells, 4P fit, activity expressed as percentage of Compound A
T1 construct: expressed in transfected cells; host or cells: CHO-K1 (clone #7, CHO-K1/sGC)
T1 sequence (Q02108 1-690): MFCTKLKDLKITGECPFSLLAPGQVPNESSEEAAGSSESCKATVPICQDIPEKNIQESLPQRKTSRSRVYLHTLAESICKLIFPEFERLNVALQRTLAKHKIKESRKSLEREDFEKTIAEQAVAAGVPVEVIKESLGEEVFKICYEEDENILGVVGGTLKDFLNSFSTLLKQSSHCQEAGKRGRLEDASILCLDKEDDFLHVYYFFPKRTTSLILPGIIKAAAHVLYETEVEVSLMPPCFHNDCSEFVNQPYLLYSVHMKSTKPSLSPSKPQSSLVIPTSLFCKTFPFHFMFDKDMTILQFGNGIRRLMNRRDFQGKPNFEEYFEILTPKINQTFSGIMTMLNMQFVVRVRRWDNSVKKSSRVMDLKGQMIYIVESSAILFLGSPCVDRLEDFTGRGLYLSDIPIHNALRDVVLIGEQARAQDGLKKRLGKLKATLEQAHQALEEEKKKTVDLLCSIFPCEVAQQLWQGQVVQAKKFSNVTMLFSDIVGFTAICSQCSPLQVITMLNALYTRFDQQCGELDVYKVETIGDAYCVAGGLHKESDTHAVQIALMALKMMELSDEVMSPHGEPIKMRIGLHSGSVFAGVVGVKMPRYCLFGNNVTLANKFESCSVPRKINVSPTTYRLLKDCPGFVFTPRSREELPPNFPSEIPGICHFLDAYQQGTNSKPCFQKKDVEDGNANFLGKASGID
T1 sequence (Q02153 1-619): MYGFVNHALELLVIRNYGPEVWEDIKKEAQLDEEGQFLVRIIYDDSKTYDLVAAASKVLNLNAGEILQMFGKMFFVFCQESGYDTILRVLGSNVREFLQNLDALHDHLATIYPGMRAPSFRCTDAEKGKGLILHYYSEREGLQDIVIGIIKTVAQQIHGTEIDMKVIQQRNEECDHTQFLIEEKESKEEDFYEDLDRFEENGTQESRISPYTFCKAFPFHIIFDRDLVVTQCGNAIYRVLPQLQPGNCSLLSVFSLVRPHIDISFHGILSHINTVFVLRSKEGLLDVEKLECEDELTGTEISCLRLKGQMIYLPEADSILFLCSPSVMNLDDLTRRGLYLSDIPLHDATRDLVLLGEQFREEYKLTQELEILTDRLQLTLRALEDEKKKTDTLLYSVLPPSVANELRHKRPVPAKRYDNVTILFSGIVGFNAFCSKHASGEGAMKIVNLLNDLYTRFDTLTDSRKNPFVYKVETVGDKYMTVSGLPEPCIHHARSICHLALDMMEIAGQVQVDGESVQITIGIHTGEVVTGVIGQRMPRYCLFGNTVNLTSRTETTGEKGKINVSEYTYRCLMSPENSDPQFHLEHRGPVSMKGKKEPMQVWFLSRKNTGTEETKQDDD
Method in brief: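 cGMP was quantified by HTRF after 1 hr, 37° C exposure of thawed CHO-K1 cells expressing sGC α1/β1 to compound, with or without 1 μM DETA-NO. IBMX (0.5 mM) blocked cGMP breakdown, and DMSO was 2.5% final. Percent of standard Compound A's maximal cGMP was fitted (4P) for inflection point.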

[2] = test system: Spontaneously hypertensive rats (SHR); experiment: Acute efficacy in spontaneously hypertensive rats (SHR): telemetry blood pressure lowering after a single oral dose; format: in vivo, rat
Method in brief: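 Values are the maximum peak fall in systolic pressure after one oral dose (mpk), computed hourly against baseline from a vehicle dose given the day before. Rats were conscious, male, spontaneously hypertensive, with femoral-aortic telemetry recording 30 s every 10 min, 14 days post-surgery.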

Row | SMILES | Emax [1] | EC50 [1] | Maximum peak decrease of systolic blood pressure (SBP) in SHR, Cat. ([2]; P.O. 0.3 mpk) | Maximum peak decrease of systolic blood pressure (SBP) in SHR, Cat. ([2]; P.O. 1.0 mpk) | Maximum peak decrease of systolic blood pressure (SBP) in SHR, Cat. ([2]; P.O. 3.0 mpk) | Maximum peak decrease of systolic blood pressure (SBP) in SHR, Cat. ([2]; P.O. 2.0 mpk)
1 | Nc1nc(-c2cn3ccnc3c(CCCC(F)(F)F)n2)nc2c1C(c1ccc(Cl)cc1)(C1CC1)C(=O)N2 (stereo not drawn) [Example 316B, 4-amino-5-(4-chlorophenyl)-5-cyclopropyl-2-(8-(4,4,4-trifluorobutyl)imidazo[1,2-a]pyrazin-6-yl)-5H-pyrrolo[2,3-d]pyrimidin-6(7H)-one] | 156% | 29 nM | B (Category B=SBP in SHRs 20-40 mmHg) |  |  | 
2 | Cc1cnc(C2(C3CC3)C(=O)Nc3nc(-c4cn5ccnc5c(CCC(F)(F)C(F)(F)F)n4)nc(N)c32)cn1 (single isomer, unassigned) [Example 342B, 4-amino-5-cyclopropyl-5-(5-methylpyrazin-2-yl)-2-(8-(3,3,4,4,4-pentafluorobutyl)imidazo[1,2-a]pyrazin-6-yl)-5H-pyrrolo[2,3-d]pyrimidin-6(7H)-one] | 177% | 695 nM |  | A (Category A=SBP in SHRs<20 mmHg) |  | 
3 | Cc1cn2cc(-c3nc(N)c4c(n3)NC(=O)C4(C)c3ccc(F)cc3)nc(CCC(F)(F)C(F)(F)F)c2n1 (stereo not drawn) [Example 170A, 4-amino-5-(4-fluorophenyl)-5-methyl-2-(2-methyl-8-(3,3,4,4,4-pentafluorobutyl)imidazo [1,2-a]pyrazin-6-yl)-5H-pyrrolo[2,3-d]pyrimidin-6(7H)-one] | 104% | 57 nM |  | B (Category B=SBP in SHRs 20-40 mmHg) |  | 
4 | CC1(c2ccc(C(F)(F)F)cc2)C(=O)Nc2nc(-c3cn4ccnc4c(CCC(F)(F)F)n3)nc(N)c21 (stereo not drawn) [Example 189B, 4-amino-5-methyl-5-(4-(trifluoromethyl)phenyl)-2-(8-(3,3,3-trifluoropropyl)imidazo[1,2-a]pyrazin-6-yl)-5H-pyrrolo[2,3-d]pyrimidin-6(7H)-one] | 143% | 211 nM |  |  | B (Category B=SBP in SHRs 20-40 mmHg) | 
5 | Nc1nc(-c2cn3ccnc3c(CCC(F)(F)C(F)(F)F)n2)nc2c1C(c1ccc(F)cn1)(C1CC1)C(=O)N2 (stereo not drawn) [Example 223A, 4-amino-5-cyclopropyl-5-(5-fluoropyridin-2-yl)-2-(8-(3,3,4,4,4-pentafluorobutyl)imidazo [1,2-a]pyrazin-6-yl)-5H-pyrrolo[2,3-d]pyrimidin-6(7H)-one] | 84% | 177 nM |  | B (Category B=SBP in SHRs 20-40 mmHg) |  | 
6 | Nc1nc(-c2cn3ccnc3c(CCCC(F)(F)F)n2)nc2c1C(c1ccc(C(F)F)cn1)(C1CC1)C(=O)N2 (single isomer, unassigned) [Example 378B, 4-amino-5-cyclopropyl-5-(5-(difluoromethyl)pyridin-2-yl)-2-(8-(4,4,4-trifluorobutyl)imidazo[1,2-a]pyrazin-6-yl)-5H-pyrrolo[2,3-d]pyrimidin-6(7H)-one] | 92% | 373 nM |  | B (Category B=SBP in SHRs 20-40 mmHg) |  | 
7 | CC1(c2ccc(Cl)cc2)C(=O)Nc2nc(-c3cn4ccnc4c(CCC(F)(F)C(F)(F)F)n3)nc(N)c21 (stereo not drawn) [Example 238A, 4-amino-5-(4-chlorophenyl)-5-methyl-2-(8-(3,3,4,4,4-pentafluorobutyl)imidazo [1,2-a]pyrazin-6-yl)-5H-pyrrolo[2,3-d]pyrimidin-6(7H)-one] | 131% | 71 nM | C (Category C=SBP in SHRs>40 mmHg) |  |  | 
8 | CC(C)Cc1nc(-c2nc(N)c3c(n2)NC(=O)C3(c2ccc(F)c(F)c2)C2CC2)cn2ccnc12 (stereo not drawn) [Example 335A, 4-amino-5-cyclopropyl-5-(3,4-difluorophenyl)-2-(8-isobutylimidazo[1,2-a]pyrazin-6-yl)-5H-pyrrolo[2,3-d]pyrimidin-6(7H)-one] | 140% | 303 nM |  |  | B (Category B=SBP in SHRs 20-40 mmHg) | 
9 | CC(C)CCc1nc(-c2nc(N)c3c(n2)NC(=O)C3(C)c2ccc(Cl)cc2)cn2ccnc12 (stereo not drawn) [Example 14A, 4-amino-5-(4-chlorophenyl)-2-(8-isopentylimidazo[1,2-a]pyrazin-6-yl)-5-methyl-5H-pyrrolo[2,3-d]pyrimidin-6(7H)-one] | 113% | 111 nM |  | C (Category C=SBP in SHRs>40 mmHg) |  | 
10 | Cc1cnc2c(CCC(F)(F)C(F)(F)F)nc(-c3nc(N)c4c(n3)NC(=O)C4(C)c3ccc(F)cn3)cn12 (stereo not drawn) [Example 173B, 4-amino-5-(5-fluoropyridin-2-yl)-5-methyl-2-(3-methyl-8-(3,3,4,4,4-pentafluorobutyl)imidazo [1,2-a]pyrazin-6-yl)-5H-pyrrolo[2,3-d]pyrimidin-6(7H)-one] | 92% | 156 nM |  | B (Category B=SBP in SHRs 20-40 mmHg) |  | 
11 | CC1(c2ccc(Br)cc2)C(=O)Nc2nc(-c3cn4ccnc4c(CCC(F)(F)F)n3)nc(N)c21 (stereo not drawn) [Example 181A, 4-amino-5-(4-bromophenyl)-5-methyl-2-(8-(3,3,3-trifluoropropyl)imidazo[1,2-a]pyrazin-6-yl)-5H-pyrrolo[2,3-d]pyrimidin-6(7H)-one] | 132% | 56 nM |  | B (Category B=SBP in SHRs 20-40 mmHg) |  | 
12 | Cc1ccc(C2(C)C(=O)Nc3nc(-c4cn5ccnc5c(CCC(F)(F)F)n4)nc(N)c32)cc1 (stereo not drawn) [Example 185A, 4-amino-5-methyl-5-(p-tolyl)-2-(8-(3,3,3-trifluoropropyl)imidazo[1,2-a]pyrazin-6-yl)-5H-pyrrolo[2,3-d]pyrimidin-6(7H)-one] | 132% | 235 nM |  |  | C (Category C=SBP in SHRs>40 mmHg) | 
13 | CC1(c2ccc(Br)cc2)C(=O)Nc2nc(-c3cn4ccnc4cn3)nc(N)c21 (stereo not drawn) [Example 135A, 4-amino-5-(4-bromophenyl)-2-(imidazo[1,2-a]pyrazin-6-yl)-5-methyl-5H-pyrrolo[2,3-d]pyrimidin-6(7H)-one] | 148% | 57 nM |  | B (Category B=SBP in SHRs 20-40 mmHg) |  | 
14 | Nc1nc(-c2cn3ccnc3c(CCC(F)(F)F)n2)nc2c1C(c1ccc(Cl)cc1F)(C1CC1)C(=O)N2 (stereo not drawn) [Example 338A, 4-amino-5-(4-chloro-2-fluorophenyl)-5-cyclopropyl-2-(8-(3,3,3-trifluoropropyl)imidazo[1,2-a]pyrazin-6-yl)-5H-pyrrolo[2,3-d]pyrimidin-6(7H)-one] | 158% | 178 nM |  |  |  | B (Category B=SBP in SHRs 20-40 mmHg)
15 | CC1(c2nnc(C3CC3)o2)C(=O)Nc2nc(-c3cn4ccnc4c(Cc4ccc(F)cc4)n3)nc(N)c21 (stereo not drawn) [Example 34A, 4-amino-5-(5-cyclopropyl-1,3,4-oxadiazol-2-yl)-2-(8-(4-fluorobenzyl)imidazo[1,2-a]pyrazin-6-yl)-5-methyl-5H-pyrrolo[2,3-d]pyrimidin-6(7H)-one] | 150% | 339 nM |  |  | B (Category B=SBP in SHRs 20-40 mmHg) | 
16 | CCc1cn2cc(-c3nc(N)c4c(n3)NC(=O)C4(C)c3ccc(F)cc3)nc(CCC(F)(F)C(F)(F)F)c2n1 (stereo not drawn) [Example 159A, 4-amino-2-(2-ethyl-8-(3,3,4,4,4-pentafluorobutyl)imidazo [1,2-a]pyrazin-6-yl)-5-(4-fluorophenyl)-5-methyl-5H-pyrrolo[2,3-d]pyrimidin-6(7H)-one] | 103% | 552 nM |  |  | A (Category A=SBP in SHRs<20 mmHg) | 
